# From patent US12485079B2, “Compositions and methods relating to pigmentation” (Alastin Skincare, Inc., priority 2020, dated 2025)
# Columns and labels:
# [1] = tested on: hTERT-immortalized dermal melanocytes; settings: human
# Procedure: (§4) Melanocytes were initially plated in 6-well tissue culture plate (1.5×10^3 cells per well) in melanocyte growth media (Dermal Cell Basal Medium (ATCC® PCS-200-030 supplemented with Melanocyte Growth Kit (ATCC® PCS-200-041). Melanocytes were then expanded into 10 cm tissue culture plates at concentrations recommended by ATCC. The cells appear to fully adhere to the plate/dish while culturing with a webbed morphology. Cells were cultured at 37° C. 5% CO2 incubator.
# (§5) Once the melanocytes were 100% confluent in 6-well plates, the melanocyte growth media was removed and the melanocytes were treated with media containing the above compounds; duplicate wells for each compound/concentration listed above. The duplicate vehicle control wells were fed melanocyte growth media only or melanocyte growth media with DMSO (10 uL per 10 mL melanocyte growth media).
# (§6) The cells were fed the appropriate media for the next 5 days. Each day, the cells were inspected for morphology.
# [2] = tested on: hTERT-immortalized dermal melanocytes; assay: Melanocyte assay, daily inspection of morphology and survival (Example 6); settings: both concentrations of the compound
# Procedure: as §4, §5, §6
# [3] = tested on: melanocytes (melanin production); assay: In vitro melanocyte comparative analysis via absorbance readings (Example 4); format: cell-based; settings: for regulation of melanogenesis (decrease of absorption = decreased melanin formation): Table 8; for Absorbance 405 nm / Absorbance 490 nm / Absorbance 492 nm: melanocyte lysates
# Procedure: Melanocytes were cultured in 6-well plates containing growth media. Once confluent, 2 concentrations of each of the 10 compounds were added to the cells in triplicate wells for 4 days. There were a total of eleven 6-well plates, one for each compound treatment and one for the vehicle control. Absorbance readings were taken on the lysates prepared for each well of the 6-well plates, normalizing for cells counts. […] Additional validation was carried out using MSH addition to media to confirm increased stimulation of melanin production. The following compounds used in this study are seen in Table 7.
# [4] = tested on: UV-B-induced hyperpigmentation; settings: topical application for 4 weeks, mice skin; cited from earlier work
# [5] = tested on: SCF, LIF, POMC, endothelin genes, PGE2, NGF in keratinocytes; assay: Gene expression study (RNA sequencing) in keratinocytes; format: cell-based, human; settings: 24 hours of compound exposure
# Procedure: (§1) Four cell types associated with pigmentation pathways-melanocytes, keratinocytes, fibroblasts and endothelial (HUVEC) cells-were analyzed for gene expression.
# (§2) To simulate the UV stimulatory pigmentation pathway process, melanocytes were pre-treated with PGE2, a normal direct consequence of UV light exposure usually emanating from exposed keratinocytes. After the 48 hour attachment culture, these melanocytes were induced with 10 uM PGE2 in melanocyte media for 24 hrs. The four primary human adult dermal cell lines were cultured and plated in well plates in triplicate and then treated with 11 different compound treatments (plus DMSO control). After 48 hours of attachment culture, the remaining fibroblasts, HUVECs and keratinocytes were treated with the test compounds listed in Table 6.
# (§3) After 24 hours of compound exposure, RNA lysate preparation was carried out and samples were shipped to MedGenome for RNA extraction, library construction and sequencing to 25M paired end 100 bp reads per sample. Library prep and sequencing was completed at MedGenome.
# melanogenic genes = assay: Cell line melanogenic gene activity testing, overall conclusion; format: cell-based, human; settings: conclusion over melanocytes, keratinocytes, HUVECs
# Procedure: as §1, §2, §3
# MITF = assay: In vitro MITF gene expression test in cultured fibroblasts; format: cell-based; settings: 48 hours
# Procedure: Microphthalmia-associated transcription factor (MITF) is a master regulator of pigmentation and melanin transfer and a potential new target for hyperpigmentation and melanoma. In vitro MITF gene expression tests were carried out to ascertain differences between individual peptides (tripeptide-1 and hexapeptide-12) and their combination in terms of MITF downregulation.
# Specifically, the tests were conducted by culturing fibroblasts and then adding tripeptide-1, hexapeptide-12, or a combination of both. After 48 hours, MITF gene expression was analyzed.
# [6] = tested on: carrageenan-induced inflammation; settings: rats; cited from earlier work
# [7] = tested on: pigmented reconstructed epidermis; settings: cited from earlier work
# [8] = tested on: EDN1 and other melanogenic genes in HUVECs; assay: Gene expression study (RNA sequencing) in HUVECs; format: cell-based, human; settings: 24 hours of compound exposure
# Procedure: as §1, §2, §3
# [9] = tested on: melanogenic genes in melanocytes; assay: Gene expression study (RNA sequencing) in PGE2-induced melanocytes; format: cell-based, human
# Procedure: as §1, §2, §3
# [10] = tested on: PMEL, tyrosinase genes, MC1/4R, EDNRB, MITF, ERK1/2, JNK, AKT1; assay: Gene expression studies of Example 5; format: cell-based
# Excerpt: The methods similar to Examples 3-4 were used to measure expression of PMEL, tyrosinase genes, MC1/4R, EDNRB, MITF, ERK1/2, JNK, and ANKT1.
# FIGS. 10A-10D illustrates the expression of PMEL (FIG. 10A), Tyrosinase genes (FIG. 10B), MC1/4R (FIG. 10C), and EDNRB (FIG. 10D) after treatment of endothelial cells with lactoferrin (Lacto), peptide derived from lactoferrin (TCV), hexapeptide-12 (Hex12), tripeptide-1 and hexapeptide-12 (TriHex), hexapeptide-11 (Hex11), tranexamic acid (Tran acid) octapeptide (Octa), phosphatidylserine (phos), Cannabidiol (CBD), and all (total).
# MITF is regulated by phosphorylation. Specifically, the MAPK and Akt pathways are known to phosphorylate MITF at certain sites. FIGS. 12A-12C illustrate the expression of ERK1/2 (MAPK3/MAPK1) (FIG. 12A), JNK (FIG. 12B), AKT1 (FIG. 12C) after treatment of endothelial cells with lactoferrin (Lacto), peptide derived from lactoferrin (TCV), hexapeptide-12 (Hex12), tripeptide-1 and hexapeptide-12 (TriHex), hexapeptide-11 (Hex11), octapeptide (Octa), phosphatidylserine (phos), Cannabidiol (CBD), and all (total).
molecule,measurement,setting,value
C/C=C1/[C@H](O[C@@H]2O[C@H](CO)[C@@H](O)[C@H](O)[C@H]2O)OC=C(C(=O)OC)[C@H]1CC(=O)OCCc1ccc(O)c(O)c1 [Oleuropein],time post-initial dosing at which all or nearly all melanocytes were dead,[1],72 h
same,time post-initial dosing at which melanocytes started dying,[2],24 h
"NC[C@H]1CC[C@H](C(=O)O)CC1 [Tranexamic Acid, Tranexamic acid, reference compound]",regulation of melanogenesis (decrease of absorption = decreased melanin formation),[3]; melanocytes,Regulation of melanogenesis was also observed
"O=C(O)c1cc(O)c(O)c(O)c1 [GA, Gallic acid]",UV-B-induced hyperpigmentation,[4],significantly rescued
Hexapeptide-11 [HEX-11],"melanogenesis activity (FIGS. 6A-6F, FIG. 7)",[5],active ingredient in melanogenesis activity
same,effects on melanogenesis activity,melanogenic genes,significant effects on melanogenesis activity
same,regulation of melanogenesis (decrease of absorption = decreased melanin formation),[3]; melanocytes,Regulation of melanogenesis was observed
Oc1ccc2c(c1)OCO2 [Sesamol],regulation of melanogenesis (decrease of absorption = decreased melanin formation),[3]; melanocytes,Regulation of melanogenesis was also observed
Tripeptide-1,MITF gene expression,"MITF; 120 xppm Tripeptide, positive = upregulation",1.72
same,MITF gene expression,"MITF; 120 xppm Tripeptide, positive = upregulation, listed as tripeptide-1",+1.72
"C=C(C)[C@@H]1CCC(C)=C[C@H]1c1c(O)cc(CCCCC)cc1O [CBD, Cannabidiol]","PGE2, nitric oxide (NO), and malondialdehyde production, together with COX activity",[6],reduced
COc1ccc([C@@H]2CC(=O)c3c(O)cc(O[C@@H]4O[C@H](CO[C@@H]5O[C@@H](C)[C@H](O)[C@@H](O)[C@H]5O)[C@@H](O)[C@H](O)[C@H]4O)cc3O2)cc1O [Hesperidin],skin lightening effect,[7],showed skin lightening effect
Phosphatidylserine,activity on EDN1 and other melanogenic genes (FIG. 9),[8],potent activity
same,effects on melanogenesis activity,melanogenic genes,significant effects on melanogenesis activity
same,regulation of melanogenesis (decrease of absorption = decreased melanin formation),[3]; melanocytes,Regulation of melanogenesis was observed
Hexapeptide-12 [HEX-12],MITF gene expression,"MITF; 80 ppm Hexapeptide, negative = downregulation",−1.16
same,melanogenic activity (FIGS. 3A-3D),"[9]; melanocytes pre-treated with 10 uM PGE2, 24 hours of compound exposure",particularly dominant in melanogenic activity
same,"expression of melanogenic genes (FIG. 4, FIG. 5)","[9]; melanocytes, 24 hours of compound exposure",downregulation of melanogenic genes
same,effects on melanogenesis activity,melanogenic genes,significant effects on melanogenesis activity
same,Absorbance 405 nm,[3]; 2.9 ug/mL,1.32
same,Absorbance 490 nm,[3]; 2.9 ug/mL,0.94
same,Absorbance 492 nm,[3]; 2.9 ug/mL,0.64
same,Absorbance 405 nm,[3]; 4.9 ug/mL,0.96
same,Absorbance 490 nm,[3]; 4.9 ug/mL,0.64
same,Absorbance 492 nm,[3]; 4.9 ug/mL,0.46
same,stimulation of melanin production (model validation),[3]; melanocytes,decreased stimulation
same,regulation of melanogenesis (decrease of absorption = decreased melanin formation),[3]; melanocytes,Regulation of melanogenesis was observed
same,"melanogenic activity (expression of PMEL, Tyrosinase genes, MC1/4R, EDNRB; FIGS. 10A-10D)",[10]; after treatment of endothelial cells,robust melanogenic activity
same,effects on melanogenic activity (kinase expression linked to decreased MITF expression),[10]; conclusion of Example 5,significant effects
